# Measurements reported in patent publication US20050159425A1, “Methods of therapy” (priority 2002, published 2005).
# Key:
# [1] = tested on: IL-10 release from U937 cells; experiment: IL-10 release from U937 cells (ELISA); format: cell-based, human
# Description: U 937 cells were grown in RPMI (PAA Laboratories) medium with 10% fetal calf serum added (PAA Laboratories). 2×10^6 cells per flask were treated with prostaglandin E2 at 10^−6 Molar or with Rolipram (4×10^−6) for 24 hours. Medium was removed at 20 hours and analysed by ELISA. A capture antibody (Pharmingen) was coated onto 96 well plates and culture medium was added each well. A standard curve was created with recombinant IL-10 protein. After incubation and washing, a biotin labelled monoclonal antibody (Pharmingen) was added and following incubation and washing, peroxidase labelled streptavidin was added. After washing a tetramethyl benzidine substrate was added and colour developed in proportion to IL-10 in the original sample/standard. Colour was read using a plate photometer (Labsystems, Multiskan). Mean concentrations (N=3) in controls with no lipopolysaccharide (LPS) were […] and in the presence of LPS (100 nM) they were 43.9 […].
# The effect of PGE1, PGE2, 19 hydroxy PGE1 and 19 hydroxy PGE2 on the stimulation of IL-10 in the presence and absence of rolipram was investigated as described above in Example 2. IL-10 levels were measured using an ELISA assay (R&D Ltd, Oxford). Measurement was performed according to the manufacturer's instructions.
# [2] = tested on: phosphodiesterase IV b mRNA; experiment: phosphodiesterase IV-b mRNA in U937 cells (Taqman); format: cell-based, human; details: four hours of incubation; for PDE activity (phosphodiesterase IV b mRNA) after application: PGE 1×10^−6, 19-hydroxy PGE2 5×10^−6, without rolipram
# Description: Template was amplified in a Taqman 7700 machine for 40 cycles using FAM/TAMRA dyes on the probe. The Applied Biosystems kit was used to amplify and detect ribosomal (18S)RNA (using VIC/TAMRA dyes) as an internal control in the same reaction tube. After 40 cycles the Ct (related to cycle number at which signal appears) for the FAM and the 18S (VIC) were recorded and […] relative quantitation was achieved using the formula 2^−ΔΔCt where Δ refers to the difference between the FAM and VIC signal related to an standard comparator included in each run.
# The mRNA for phosphodiesterase IV-b was measured as described in Example 2 above. mRNA was extracted after four hours of incubation. The concentration of the PGE was 1×10^−6 and that of the 19-hydroxy PGE2 was 5×10^−6. The following primers and Taqman probe were used for quantitation of PDE IV b mRNA.
# [3] = in vivo; cited from earlier work
# type IV PDE = details: cited from earlier work; for IC50: type IV PDE selective inhibitor
# PDE = details: cited from earlier work
# [4] = tested on: monocyte/macrophages stimulated with lipopolysaccharide (LPS); details: cited from earlier work
compound,measurement,setting,value
19-hydroxy PGE2,concentration necessary to achieve similar effects to PGE,[1]; compared with PGE,higher concentration
same,stimulation of IL-10 in the presence of a PDE inhibitor,[1],increased strikingly
same,PDE activity (phosphodiesterase IV b mRNA) after application,[2],increase
"CCCCC(C)(O)CC=C[C@H]1[C@H](O)CC(=O)[C@@H]1CCCCCCC(=O)OC (mixture of isomers) [Cytotec, (±) methyl 11α, 16-dihydroxy-16-methyl-9-oxoprost-13-enoate]",hypotension,[3],does not cause hypotension
COc1ccc(C2CNC(=O)NC2)cc1O[C@H]1C[C@@H]2CC[C@H]1C2 [CP 80 633],type IV PDE inhibition,type IV PDE,potent type IV inhibitors
"CC(C)Cn1c(=O)n(C)c(=O)c2[nH]cnc21 [IBMX, 3-isobutyl-1-methylxanthine]",IC50,PDE; non-specific PDE inhibitor,2 to 50 µM
"CCCCC[C@H](O)/C=C/[C@H]1[C@H](O)CC(=O)[C@@H]1C/C=C\CCCC(=O)O [PGE2, prostaglandin E2]",effect on release of IL-10 in combination with PDE inhibitor rolipram,[1]; combination with rolipram,synergistic
same,stimulation of IL-10 in the presence of a PDE inhibitor,[1],increased strikingly
same,PDE activity (phosphodiesterase IV b mRNA) after application,[2],increase
same,PDE message levels with a type IV selective PDE inhibitor,[2]; with type IV selective PDE inhibitor (rolipram),increases PDE message levels even further
"CCCCOc1cc(CC2CNC(=O)N2)ccc1OC (stereo not shown) [Ro-20-1724, 4-[3-butoxy-4-methoxybenzyl]-2-imidazolidinone]",IC50,type IV PDE,2 µM
Cn1c(=O)c2c(ncn2C)n(C)c1=O [caffeine],activity as non-specific PDE inhibitor,"PDE; compared with theophylline, IBMX and pentoxifylline",not as active as the others
"COc1ccc(C2CNC(=O)C2)cc1OC1CCCC1 (stereo not shown) [rolipram, 4-[3-cyclopentyloxy-4-methoxyphenyl]-2-pyrrolidinone]",IL-10 levels,[4],raise
same,cAMP levels,[4],raise
same,IC50,type IV PDE,0.8 µM
Cn1c(=O)c2[nH]cnc2n(C)c1=O [theophylline],times less effective than rolipram,type IV PDE; non-selective inhibitor compared with rolipram,30 times
